In paper PMC7562955 (Nature Communications, 2020):

Target: T1, human TLR9 (Homo sapiens, UniProt Q9NR96)
T1 construct: host or cells: HEK293 (TLR9/NF-κB/SEAPorter)
T1 sequence (Q9NR96 26-1032): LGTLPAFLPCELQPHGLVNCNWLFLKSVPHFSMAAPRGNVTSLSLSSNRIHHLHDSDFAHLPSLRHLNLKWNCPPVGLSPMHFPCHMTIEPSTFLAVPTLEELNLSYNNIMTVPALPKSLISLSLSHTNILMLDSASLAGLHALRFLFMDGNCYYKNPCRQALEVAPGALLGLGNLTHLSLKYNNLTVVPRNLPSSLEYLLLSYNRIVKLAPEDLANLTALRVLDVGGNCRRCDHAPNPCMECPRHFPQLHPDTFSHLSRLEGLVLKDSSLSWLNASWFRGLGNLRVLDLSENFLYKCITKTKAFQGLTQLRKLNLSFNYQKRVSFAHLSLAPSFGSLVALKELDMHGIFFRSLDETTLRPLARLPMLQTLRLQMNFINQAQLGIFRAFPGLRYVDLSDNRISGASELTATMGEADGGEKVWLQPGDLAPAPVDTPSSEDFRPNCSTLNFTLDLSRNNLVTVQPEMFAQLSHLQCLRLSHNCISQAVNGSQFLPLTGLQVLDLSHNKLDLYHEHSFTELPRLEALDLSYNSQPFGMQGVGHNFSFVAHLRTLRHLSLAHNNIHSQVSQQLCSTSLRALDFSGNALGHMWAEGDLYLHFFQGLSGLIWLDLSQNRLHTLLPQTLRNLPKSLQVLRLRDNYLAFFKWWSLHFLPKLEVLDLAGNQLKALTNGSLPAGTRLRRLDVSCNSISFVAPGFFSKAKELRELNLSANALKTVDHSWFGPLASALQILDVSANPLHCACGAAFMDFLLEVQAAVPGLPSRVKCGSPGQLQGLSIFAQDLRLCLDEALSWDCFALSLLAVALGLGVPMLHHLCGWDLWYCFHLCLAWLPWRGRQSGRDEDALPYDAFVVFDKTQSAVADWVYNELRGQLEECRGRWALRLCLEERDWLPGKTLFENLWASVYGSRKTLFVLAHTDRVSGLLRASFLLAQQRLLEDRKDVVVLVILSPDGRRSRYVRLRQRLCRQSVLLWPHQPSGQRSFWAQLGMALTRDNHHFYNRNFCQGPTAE
Experiment: Human TLR9 reporter gene inhibitory activity assay (NF-κB/SEAP HEK293)
Type: cell-based
Details: for human TLR9 activity, reporter signal: CpG2006 500 nM
Description: Compounds were dissolved in dimethyl sulfoxide. Before stimulation with compound, Human TLR7 reporter cell line (TLR7/NF-κB/SEAPorter^TM HEK293 cell, Novus Biological, USA), human TLR8 reporter cell line (TLR8/NF-κB/SEAPorter^TM HEK293 cell, Novus Biological), and human TLR9 reporter cell line (TLR9/NF-κB/SEAPorter^TM HEK293 cell, Novus Biological) were seeded in 96-well microtiter plate (AGC techno glass, Japan) at 5 × 10^4 cells/well in DMEM (GIBCO, United Kingdam) with 10 % fetal bovine serum (GIBCO), and 10 ug/ml Blastcidin S HCl (GIBCO) and incubated at 37 °C in 5% CO2. The plates were incubated over-night and then stimulated with various concentrations of compound. […] After 30 min, R848 (human TLR7/8 ligand, synthesized at Sumitomo Dainippon Pharma, Japan) or CpG2006 (human TLR9 ligand, Hokkaido System Science Co., Ltd., Japan) added to each well, wherein each final concentration were adjusted to 200 nM R848 (human TLR7), 30 μM R848 (human TLR8), or 500 nM CpG2006 (human TLR9). The plates were then incubated an additional 20 ± 1 h at 37 °C in 5% CO2 and then the secreted embryonic alkaline phosphatase (SEAP) activity was measured as activation of human TLR7, 8, and 9. The SEAP activity was evaluated as follows: pNPP (Invitrogen, USA) was added to the incubated sample (50 μl/well); after 15 min, 4 M sodium hydroxide solution (nacalai tesque, Japan) was added thereto (50 μl/well) to quench the reaction; and the absorbance of each sample was measured at 405 nm with microplate reader SpectraMax M4 (Molecular Devices, USA).

Row | inhibition of TLR9 | SMILES | human TLR9 activity, reporter signal (compound 0.0001 nM (as headed)) | human TLR9 activity, reporter signal (compound 0.001 nM (as headed)) | human TLR9 activity, reporter signal (compound 0.003 nM (as headed)) | human TLR9 activity, reporter signal (compound 0.01 nM (as headed)) | human TLR9 activity, reporter signal (compound 0.03 nM (as headed)) | human TLR9 activity, reporter signal (compound 0.1 nM (as headed)) | human TLR9 activity, reporter signal (compound 0.3 nM (as headed)) | human TLR9 activity, reporter signal (compound 1 nM (as headed)) | human TLR9 activity, reporter signal (compound 3 nM (as headed)) | human TLR9 activity, reporter signal (compound 10 nM (as headed)) | human TLR9 activity, reporter signal (compound 30 nM (as headed)) | human TLR9 activity, reporter signal (compound 100 nM (as headed))
1 | without causing any inhibition | CCCCOc1nc(N)c2nc(-c3cccnc3)n(Cc3ccccc3)c2n1 [Cpd-5] | 0.3823 | 0.4021 | 0.4541 | 0.4157 | 0.4224 | 0.4068 | 0.4193 | 0.3613 | 0.3381 | 0.3129 | 0.2475 | 0.2357
2 |  | CCOc1nc(C)c2nc(-c3cncc(F)c3)n(Cc3ccc(CN4C[C@@H]5C[C@H]4CN5C)cc3)c2n1 [Cpd-7] | 0.3816 | 0.3944 | 0.4214 | 0.4209 | 0.4048 | 0.3963 | 0.3799 | 0.3655 | 0.3183 | 0.2034 | 0.05003 | -0.002975
3 |  | CCOc1nc(N)c2nc(-c3cncc(F)c3)n(Cc3ccc(CN4C[C@@H]5C[C@H]4CN5C)cc3)c2n1 [Cpd-6] | 0.3816 | 0.371 | 0.3771 | 0.3689 | 0.3826 | 0.3836 | 0.372 | 0.3752 | 0.3176 | 0.265 | 0.06893 | 0.01837
4 |  | CCN(CCO)CCCC(C)Nc1ccnc2cc(Cl)ccc12 (centres unmarked) [HCQ, hydroxychloroquine, reference compound] | 0.3549 |  |  | 0.3663 | 0.3271 | 0.2912 | 0.1984 | 0.0758 | 0.0184 | -0.013 | -0.01145 | -0.00085
